This note sets out measurements from article PMC6270994, “The Hydractinia echinata Test-System. III: Structure-Toxicity Relationship Study of Some Azo-, Azo-Anilide, and Diazonium Salt Derivatives” (Molecules, 2014).

Each structure is given as a SMILES string.

The test system of one assay is Hydractinia echinata. The assay is described as follows: Hydractinia echinata test system (HeTS): reduction of Cs+-induced metamorphosis of larvae. It is filed as in vivo. As to conditions: Hydractinia echinata; MRC50 in mol/L = concentration for 50% decrease of metamorphosis vs control; larvae exposed 3 h with Cs+, read after 24 h; read-out: M: experimental Mlog(1/MRC50) (converted). On the procedure: The average (C) concentrations of these values were calculated too. The MRC50 value calculations (Chicu et al.) result from the graphical representation of the metamorphosis variation, M (%), (Y axis) function of the xenobiotic’s concentration (mol/L) (X axis), where the metamorphosis decreases with the rise of the xenobiotic’s concentration. Thus, the MRC50 value represents the xenobiotic’s concentration (mol/L) necessary for a 50% decrease of metamorphosis, with respect to control.
For each concentration of substance experiments were performed in triplicate and were repeated at least twice.
Colonies of H. echinata (Biologische Anstalt, Helgoland, Germany) were used to obtain eggs and larvae. The culture medium was artificial seawater (980 mosmol, pH 8.2, 18 °C). In laboratory an artificial metamorphosis can be synchronically started by the introduction of Cs^+ ions or by using seawater without Mg^2+ ions; it then lasts only 24 h. Under the action of external stimulus of Cs^+ ions or Cs^+ ions together with the tested compounds, one part of larvae further lives as such and another one is metamorphosized to the polyp form. The evaluation of the influence of the tested substance is very clear this way, the proposed method being based on this aspect.
H. echinata larvae were exposed to seawater containing Cs^+ and simultaneously one of the test substances for 3 h. The percentage of animals that underwent metamorphosis (development into polyps) was determined after 24 h. […] We chose a concentration of inducers which caused about […] to three quarters of the larvae to metamorphose in order to have conditions which are highly sensitive against an inhibitory influence. […] This concentration was termed MRC50 (for Metamorphosis Reduction Concentration) and is similar to the effective EC50 concentration that gives half maximal effective response.
For `O=C(O)c1cc2ccccc2c(N=Nc2ccc(C=Cc3ccc(N=Nc4c(O)c(C(=O)O)cc5ccccc45)cc3S(=O)(=O)O)c(S(=O)(=O)O)c2)c1O` [Compound 101, 4-{2-[4-(2-{4-[2-(3-Carboxy-2-hydroxy-naphthalen-1-yl)diazen-1-yl]-2-sulfophenyl}-ethenyl)-3-sulfo-phenyl]diazen-1-yl}-3-hydroxynaphthalene-2-carboxylic acid], the EC50 was 135 µM. Still for that read-out and setting: next, `Nc1c(N=Nc2ccc(C=Cc3ccc(N=Nc4cc(S(=O)(=O)O)c5ccccc5c4N)cc3S(=O)(=O)O)c(S(=O)(=O)O)c2)cc(S(=O)(=O)O)c2ccccc12` [Compound 102, 4-Amino-3-{2-[4-(2-{4-[2-(1-amino-4-sulfonaphthalen-2-yl)diazen-1-yl]-2-sulfophenyl}ethenyl)-3-sulfophenyl]diazen-1-yl}naphthalene-1-sulfonic acid]: 182 µM; `O=C(Nc1ccc(/N=N/c2ccc(C(=O)O)c(O)c2)cc1)c1ccc(/N=N/c2ccccc2O)cc1` [Compound 104, 2-Hydroxy-4-[(E)-2-(4-{4-[(E)-2-(2-hydroxy-phenyl)diazen-1-yl]-benzamido}phenyl)-diazen-1-yl]benzoic acid]: 30.2 µM; `O=C(Nc1ccc(/N=N/c2ccc(O)c(C(=O)O)c2)cc1)c1ccc(/N=N/c2cc(/N=N/c3cc(S(=O)(=O)O)ccc3O)c(O)cc2O)cc1` [Compound 105, 5-[(E)-2-(4-{4-[(E)-2-{2,4-dihydroxy-5-[(E)-2-(2-hydroxy-5-sulfo-phenyl)diazen-1-yl]-phenyl}diazen-1-yl]-benzamido}phenyl)-diazen-1-yl]-2-hydroxybenzoic acid]: 229 µM. With `O=C(Nc1ccc(N=Nc2ccc(O)c(C(=O)O)c2)cc1)c1ccc(N=Nc2ccc(O)c(C(=O)O)c2)cc1` [Compound 106, 5-[2-(4-{4-[2-(3-Carboxy-4-hydroxyphenyl)diazen-1-yl]benzamido}-phenyl)diazen-1-yl]-2-hydroxybenzoic acid], the EC50 is 363 µM. On the same count and under the same terms, the result for `Nc1ccc2c(O)c(N=Nc3ccc(NC(=O)c4ccc(N=Nc5ccc(O)c(C(=O)O)c5)cc4)cc3)c(S(=O)(=O)O)cc2c1` [Compound 107, 5-{2-[4-({4-[2-(6-Amino-1-hydroxy-3-sulfonaphthalen-2-yl)diazen-1-yl]-phenyl}carbamoyl)-phenyl]diazen-1-yl}-2-hydroxybenzoic acid] reads 219 µM.

Regarding `Nc1ccc2cc(S(=O)(=O)O)c(N=Nc3ccc(NC(=O)c4ccc(N=Nc5ccc(O)c(C(=O)O)c5)cc4)cc3)c(O)c2c1` [Compound 108, 5-{2-[4-({4-[2-(7-Amino-1-hydroxy-3-sulfonaphthalen-2-yl)diazen-1-yl]-phenyl}carbamoyl)-phenyl]diazen-1-yl}-2-hydroxybenzoic acid], the EC50 is 214 µM.

For `Nc1c(N=Nc2ccc(NC(=O)c3ccc(N=Nc4cc(S(=O)(=O)O)c5ccccc5c4N)cc3)cc2)cc(S(=O)(=O)O)c2ccccc12` [Compound 109, 4-Amino-3-[2-(4-{4-[2-(1-amino-4-sulfonaphthalen-2-yl)-diazen-1-yl]-benzamido}phenyl)-diazen-1-yl]-naphthalene-1-sulfonic acid], the EC50 is 166 µM. Same read-out and setting: the result for `O=C(Nc1ccc(N=Nc2c(O)c(S(=O)(=O)O)cc3cc(S(=O)(=O)O)ccc23)cc1)c1ccc(N=Nc2c(O)c(S(=O)(=O)O)cc3cc(S(=O)(=O)O)ccc23)cc1` [Compound 110, 3-Hydroxy-4-[2-(4-{4-[2-(2-hydroxy-3,6-disulfonaphthalen-1-yl)diazen-1-yl]-benzamido}phenyl)-diazen-1-yl]-naphthalene-2,7-disulfonic acid] reads 195 µM.

For `Nc1ccc2cc(S(=O)(=O)O)c(N=Nc3ccc(NC(=O)c4ccc(N=Nc5c(S(=O)(=O)O)cc6cc(S(=O)(=O)O)cc(N)c6c5O)cc4)cc3)c(O)c2c1` [Compound 111, 5-Amino-3-{2-[4-({4-[2-(7-amino-1-hydroxy-3-sulfonaphthalen-2-yl)diazen-1-yl]phenyl}-carbamoyl)phenyl]diazen-1-yl}-4-hydroxy-naphthalene-2,7-disulfonic acid], the EC50 is 263 µM. The same measure, in the same setting: the result for `Cc1[nH]n(-c2ccc(S(=O)(=O)O)cc2)c(=O)c1N=Nc1ccc(NC(=O)c2ccc(N=Nc3c(C)[nH]n(-c4ccc(S(=O)(=O)O)cc4)c3=O)cc2)cc1` [Compound 112, 4-(3-Methyl-4-{2-[4-(4-{2-[5-methyl-3-oxo-2-(4-sulfophenyl)-2,3-dihydro-1H-pyrazol-4-yl]diazen-1-yl}-benzamido)phenyl]-diazen-1-yl}-5-oxo-2,5-dihydro-1H-pyrazol-1-yl)benzene-1-sulfonic acid] reads 95.5 µM. On the same count and under the same terms, next, `Nc1c(N=Nc2ccc([N+](=O)[O-])cc2)c(S(=O)(=O)O)cc2cc(S(=O)(=O)O)c(N=Nc3ccc(NC(=O)c4ccc(N=Nc5ccc(O)c(C(=O)O)c5)cc4)cc3)c(O)c12` [Compound 113, 5-[2-(4-{[4-(2-{8-Amino-1-hydroxy-7-[2-(4-nitrophenyl)diazen-1-yl]-3,6-disulfonaphthalen-2-yl}diazen-1-yl)-phenyl]carbamoyl}-phenyl)diazen-1-yl]-2-hydroxybenzoic acid]: 112 µM; `Nc1c(N=Nc2ccc([N+](=O)[O-])cc2C(=O)O)c(S(=O)(=O)O)cc2cc(S(=O)(=O)O)c(N=Nc3ccc(NC(=O)c4ccc(N=Nc5ccc(O)c(C(=O)O)c5)cc4)cc3)c(O)c12` [Compound 114, 5-[2-(4-{[4-(2-{8-Amino-7-[2-(2-carboxy-4-nitrophenyl)diazen-1-yl]-1-hydroxy-3,6-disulfonaphthalen-2-yl}diazen-1-yl)phenyl]-carbamoyl}phenyl)-diazen-1-yl]-2-hydroxybenzoic acid]: 129 µM; `C=C(O)c1cc([N+](=O)[O-])ccc1N=Nc1c(N)ccc2c(O)c(N=Nc3ccc(NC(=O)c4ccc(N=Nc5ccc(O)c(C(=O)O)c5)cc4)cc3)c(S(=O)(=O)O)cc12` [Compound 115, 5-{2-[4-({4-[2-(6-Amino-1-hydroxy-5-{2-[2-(1-hydroxy-ethenyl)-4-nitro-phenyl]diazen-1-yl}-3-sulfonaphthalen-2-yl)diazen-1-yl]phenyl}-carbamoyl)phenyl]-diazen-1-yl}-2-hydroxybenzoic acid]: 138 µM. In the case of `Nc1ccc(N=Nc2ccc(NC(=O)c3ccc(N=Nc4c(S(=O)(=O)O)cc5cc(S(=O)(=O)O)c(N=Nc6ccccc6)c(O)c5c4N)cc3)cc2)c(N)c1` [Compound 116, 4-Amino-3-{2-[4-({4-[2-(2,4-diamino-phenyl)diazen-1-yl]phenyl}carbamoyl)-phenyl]diazen-1-yl}-5-hydroxy-6-(2-phenyl-diazen-1-yl)-naphthalene-2,7-disulfonic acid], the EC50 was 166 µM.

Consider `O=C(Nc1ccc(N=Nc2ccc(O)c(C(=O)Nc3ccccc3)c2)cc1)c1ccc(N=Nc2ccc(O)c(C(=O)Nc3ccccc3)c2)cc1` [Compound 117, 2-Hydroxy-5-{2-[4-(4-{2-[4-hydroxy-3-(phenylcarbamoyl)phenyl]diazen-1-yl}-benzamido)phenyl]-diazen-1-yl}-N-phenylbenzamide], for which the EC50 is 166 µM. Still for that read-out and setting: the result for `O=C(Nc1ccc(N=Nc2c(S(=O)(=O)O)cc3cc(NC(=O)c4ccccc4)ccc3c2O)cc1)c1ccc(N=Nc2ccc(O)c(C(=O)Nc3ccccc3)c2)cc1` [Compound 118, 7-Benzamido-4-hydroxy-3-{2-[4-(4-{2-[4-hydroxy-3-(phenyl-carbamoyl)phenyl]diazen-1-yl}benzamido)-phenyl]diazen-1-yl}naphthalene-2-sulfonic acid] reads 224 µM; that for `O=C(Nc1ccc(N=Nc2c(S(=O)(=O)O)cc3cc(NC(=O)c4ccccc4)ccc3c2O)cc1)c1ccc(N=Nc2ccc(O)c(C(=O)O)c2)cc1` [Compound 119, 5-{2-[4-({4-[2-(6-Benzamido-1-hydroxy-3-sulfonaphthalen-2-yl)diazen-1-yl]-phenyl}carbamoyl)phenyl]diazen-1-yl}-2-hydroxybenzoic acid], 22.4 µM; that for `Nc1c(N=Nc2ccc(NC(=O)c3ccc(N=Nc4ccc(O)c(C(=O)Nc5ccccc5)c4)cc3)cc2)cc(S(=O)(=O)O)c2ccccc12` [Compound 120, 4-Amino-3-{2-[4-(4-{2-[4-hydroxy-3-(phenyl-carbamoyl)phenyl]diazen-1-yl}benzamido)phenyl]-diazen-1-yl}naphthalene-1-sulfonic acid], 25.1 µM. In the case of `Nc1ccc2cc(S(=O)(=O)O)c(N=Nc3ccc(NC(=O)c4ccc(N=Nc5ccc(O)c(C(=O)Nc6ccccc6)c5)cc4)cc3)c(O)c2c1` [Compound 121, 6-Amino-4-hydroxy-3-{2-[4-(4-{2-[4-hydroxy-3-(phenyl-carbamoyl)phenyl]diazen-1-yl}benzamido)-phenyl]diazen-1-yl}naphthalene-2-sulfonic acid], the EC50 is 31.6 µM.

Still in this assay, the particulars now being: Hydractinia echinata; parent dye, Table 2; read-out: F(1+2+...)e experimental toxicity log(1/MRC50) (converted).
Take `O=C(Nc1ccc(/N=N/c2ccc(C(=O)O)c(O)c2)cc1)c1ccc(/N=N/c2ccccc2O)cc1` [Compound 104, 2-Hydroxy-4-[(E)-2-(4-{4-[(E)-2-(2-hydroxy-phenyl)diazen-1-yl]-benzamido}phenyl)-diazen-1-yl]benzoic acid]: the EC50 is 30.2 µM. As for `O=C(Nc1ccc(N=Nc2ccc(O)c(C(=O)O)c2)cc1)c1ccc(N=Nc2ccc(O)c(C(=O)O)c2)cc1` [Compound 106, 5-[2-(4-{4-[2-(3-Carboxy-4-hydroxyphenyl)diazen-1-yl]benzamido}-phenyl)diazen-1-yl]-2-hydroxybenzoic acid], the EC50 was 363 µM. Turning to `O=C(Nc1ccc(N=Nc2ccc(O)c(C(=O)Nc3ccccc3)c2)cc1)c1ccc(N=Nc2ccc(O)c(C(=O)Nc3ccccc3)c2)cc1` [Compound 117, 2-Hydroxy-5-{2-[4-(4-{2-[4-hydroxy-3-(phenylcarbamoyl)phenyl]diazen-1-yl}-benzamido)phenyl]-diazen-1-yl}-N-phenylbenzamide], the EC50 was 166 µM.

Staying with this assay, now noted: MRC50 in mol/L = concentration for 50% decrease of metamorphosis vs control; larvae exposed 3 h with Cs+, read after 24 h.
For the molecule `O=S(=O)([O-])c1cc(Nc2nc(Nc3ccccc3)nc(N(CCO)CCO)n2)ccc1/C=C/c1ccc(Nc2nc(Nc3ccccc3)nc(N(CCO)CCO)n2)cc1S(=O)(=O)[O-].[Na+].[Na+]` [Compound 103, Fluorescent Brightener 28], the “M: experimental Mlog(1/MRC50)” value was 3.81.
